Laboratory results as given in ChEMBL document CHEMBL1145602, “Synthesis and DNA binding ability of cyclam-amino acid conjugates” (Bioorg Med Chem Lett, 2008).
The source made the active and inactive calls. The calls are words filed in the database; no cut-off is given here.

Tested on: DNA
Assay: Binding affinity to calf thymus DNA at pH 7 by thermal denaturation assay
Assay type: nucleic-acid assay
Conditions: Bos taurus

| Activity | ΔTm [°C] | SMILES |
| --- | --- | --- |
| Active | – | C[C@H](NC(=O)CN1CCCNCCNCCCNCC1)C(=O)O |
| – | 8 | O=C(CN1CCCNCCNCCCNCC1)N[C@@H](COCc1ccccc1)C(=O)O |
| Active | – | O=C(CN1CCCNCCNCCCNCC1)N[C@@H](Cc1ccccc1)C(=O)O |
